Assay results published in the supplement of paper PMC10307832.

Experiments:
Assay in all cases: relative viability (nuclei count vs DMSO), 5 days (fraction); higher = more cells survive
IU1-47 + Palbociclib = compound: CC1=CC(=C(N1C2=CC=C(C=C2)Cl)C)C(=O)CN3CCCCC3 [IU1-47] + CC(=O)c1c(C)c2cnc(Nc3ccc(N4CCNCC4)cn3)nc2n(C2CCCC2)c1=O [Palbociclib] (partner 0.5 µM)
How it was run: (§1)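 Nuclei were stained with Hoechst during a one-step fixation (final 0.05% Triton X-100, 1% formaldehyde, 1 ug/ml Hoechst) carried out 5 days after dosing, then counted on 4× images. The cells, lung cancer lines in 1536-well plates, had been dosed by pin tool the day after seeding with one drug alone or a fixed anchor-drug dose plus five library-drug doses (not always all listed) in √10 steps. Relative viability is the nuclei count in treated wells divided by that in vehicle wells, and each value is the median of duplicate plates.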

IU1-47 + Crizotinib = compound: CC1=CC(=C(N1C2=CC=C(C=C2)Cl)C)C(=O)CN3CCCCC3 [IU1-47] + C[C@@H](Oc1cc(-c2cnn(C3CCNCC3)c2)cnc1N)c1c(Cl)ccc(F)c1Cl [Crizotinib] (partner 1 µM)
How it was run: as §1

FG-4592 + Bortezomib = compound: Cc1nc(C(=O)NCC(=O)O)c(O)c2ccc(Oc3ccccc3)cc12 [FG-4592] + CC(C)C[C@H](NC(=O)[C@H](Cc1ccccc1)NC(=O)c1cnccn1)B(O)O [Bortezomib] (partner 0.002 µM)
How it was run: as §1

FG-4592 + Vorinostat = compound: Cc1nc(C(=O)NCC(=O)O)c(O)c2ccc(Oc3ccccc3)cc12 [FG-4592] + O=C(CCCCCCC(=O)Nc1ccccc1)NO [Vorinostat] (partner 1 µM)
How it was run: as §1

Cell Line | relative viability (IU1-47 + Palbociclib; first compound 0.08 µM) | relative viability (IU1-47 + Palbociclib; first compound 0.253 µM) | relative viability (IU1-47 + Palbociclib; first compound 0.8 µM) | relative viability (IU1-47 + Palbociclib; first compound 2.53 µM) | relative viability (IU1-47 + Palbociclib; first compound 8 µM) | relative viability (IU1-47 + Crizotinib; first compound 0.08 µM) | relative viability (IU1-47 + Crizotinib; first compound 0.253 µM) | relative viability (IU1-47 + Crizotinib; first compound 0.8 µM) | relative viability (IU1-47 + Crizotinib; first compound 2.53 µM) | relative viability (IU1-47 + Crizotinib; first compound 8 µM) | relative viability (FG-4592 + Bortezomib; first compound 0.08 µM) | relative viability (FG-4592 + Bortezomib; first compound 0.253 µM) | relative viability (FG-4592 + Bortezomib; first compound 0.8 µM) | relative viability (FG-4592 + Bortezomib; first compound 2.53 µM) | relative viability (FG-4592 + Bortezomib; first compound 8 µM) | relative viability (FG-4592 + Vorinostat; first compound 0.08 µM) | relative viability (FG-4592 + Vorinostat; first compound 0.8 µM) | relative viability (FG-4592 + Vorinostat; first compound 2.53 µM) | relative viability (FG-4592 + Vorinostat; first compound 8 µM) | relative viability (FG-4592 + Vorinostat; first compound 0.253 µM)
HCC-78 | 0.474 | 0.441 | 0.5 | 0.507 | 0.457 | 0.334 | 0.358 | 0.336 | 0.324 | 0.386 | 0.558 | 0.51 | 0.406 | 0.453 | 0.371 | 0.488 | 0.434 | 0.376 | 0.523 | 
HCC-366 | 0.409 | 0.421 | 0.349 | 0.546 | 0.327 | 0.38 | 0.633 | 0.562 |  | 0.393 | 0.9 | 1.01 | 1.11 | 1.12 | 0.99 | 0.263 | 0.185 | 0.308 | 0.33 | 0.269
HCC-827 | 0.553 | 0.497 | 0.534 | 0.551 | 0.535 | 0.89 | 0.955 | 1.01 | 0.961 | 0.904 | 1.04 | 0.947 | 1.23 | 0.983 | 0.939 | 0.85 | 0.927 | 0.842 | 0.81 | 0.823
HOP-62 | 0.515 | 0.524 | 0.483 | 0.499 | 0.452 | 0.918 | 0.873 | 0.901 | 0.441 | 0.971 | 0.602 | 0.816 | 0.628 | 0.754 | 0.985 | 0.61 | 0.451 | 0.486 | 0.816 | 0.686
IA-LM |  |  |  |  |  |  | 0.974 | 0.942 | 1.1 | 0.644 | 0.914 | 0.75 | 0.814 | 0.653 | 0.405 | 0.826 | 0.814 | 0.943 | 1.04 | 0.83
LC-2-ad | 0.498 | 0.509 | 0.484 |  | 0.488 | 0.412 | 0.444 | 0.434 | 0.572 | 0.41 | 0.98 | 1.02 | 0.973 | 1.05 | 0.878 | 0.715 | 0.782 | 0.637 | 0.683 | 0.645
LCLC-97TM1 | 0.281 | 0.229 | 0.218 |  | 0.297 | 0.461 | 0.339 | 0.458 |  | 0.323 | 0.77 | 0.522 | 0.884 | 0.71 | 0.301 | 0.63 |  | 0.328 | 0.671 | 0.737
LCLC-103H | 0.551 | 0.531 | 0.506 | 0.478 | 0.469 | 1.15 | 1.06 | 1.06 | 1.05 | 1.09 | 1.04 | 1.01 | 1.02 | 1.09 | 1.15 | 0.75 | 0.677 | 0.707 | 0.747 | 0.733
LK-2 | 1.04 | 1.03 | 0.568 | 0.68 | 0.559 | 0.204 | 0.223 | 0.223 | 0.213 | 0.255 |  |  |  |  |  | 0.299 | 0.228 | 0.208 | 0.214 | 0.245
NCI-H358 | 0.131 | 0.165 | 0.149 | 0.112 | 0.141 | 0.532 | 0.607 | 0.516 |  | 0.495 |  |  |  |  |  | 0.61 | 0.745 | 0.88 | 0.716 | 0.567
NCI-H522 | 0.987 | 0.988 | 1.36 | 0.845 | 0.956 |  |  |  |  |  |  |  |  |  |  | 0.962 |  | 0.724 | 0.89 | 0.794
NCI-H596 |  |  |  |  |  | 1.01 | 1.07 | 1.04 | 0.95 | 0.943 | 0.919 | 0.808 |  | 0.994 | 0.983 | 0.441 |  | 0.637 | 0.584 | 0.507
NCI-H1299 |  |  |  |  |  | 0.965 | 0.93 | 0.977 | 0.972 | 0.834 | 1.07 | 0.993 | 0.951 | 1 | 1.06 |  |  |  |  | 
NCI-H1395 | 0.58 | 0.569 | 0.631 | 0.655 | 0.567 |  |  |  |  |  |  |  |  |  |  | 0.729 | 0.493 | 0.675 | 0.623 | 0.771
NCI-H1563 |  |  |  |  |  | 0.877 | 0.791 | 0.882 | 0.86 | 0.802 | 0.647 | 0.843 | 0.751 | 0.8 | 0.661 |  |  |  |  | 
NCI-H1648 | 0.285 | 0.289 | 0.282 | 0.249 | 0.265 |  |  |  |  |  |  |  |  |  |  | 0.481 |  | 0.349 | 0.708 | 0.683
NCI-H1703 |  |  |  |  |  | 0.524 | 0.917 | 0.426 | 1.15 | 1.11 | 0.334 | 0.327 | 0.355 | 0.186 | 0.274 |  |  |  |  | 
NCI-H1792 | 0.727 | 0.643 | 0.707 | 0.44 | 0.544 | 0.993 | 1.03 | 1.07 | 1.02 | 0.522 | 0.985 | 0.753 | 0.998 | 0.883 | 0.923 |  |  |  |  | 
NCI-H1793 | 0.306 |  | 0.317 | 0.359 | 0.276 |  |  |  |  |  |  |  |  |  |  |  |  | 0.638 | 0.678 | 0.677
NCI-H1944 | 0.342 | 0.376 | 0.345 | 0.291 | 0.33 | 1.15 | 1.21 | 1.08 |  | 1.09 |  |  |  |  |  | 0.479 | 0.461 | 0.512 | 0.561 | 0.571
NCI-H2170 | 0.461 | 0.463 | 0.455 | 0.411 | 0.382 | 1.42 | 1.44 | 1.26 | 1.11 | 1.25 |  |  |  |  |  | 0.825 | 0.627 | 0.785 | 0.608 | 0.747
NCI-H2342 | 0.564 | 0.569 | 0.487 | 0.527 | 0.519 |  |  |  |  |  |  |  |  |  |  | 0.701 | 0.697 | 0.681 | 0.651 | 0.721
SK-MES-1 | 0.282 | 0.332 | 0.292 | 0.34 | 0.273 | 1.08 | 1.04 | 0.908 | 0.984 | 0.994 |  |  |  |  |  | 1.13 | 1.02 | 0.947 | 1.02 | 0.969
SW 900 | 0.53 |  | 0.564 | 0.621 | 0.513 |  |  |  |  |  |  |  |  |  |  |  |  | 0.548 | 0.469 | 0.388
